Source: patent US12091423B2, “Substituted 3,4,12,12a-tetrahydro-1H-[1,4]oxazino[3,4-c]pyrido[2,1-f][1,2,4]triazine-6,8-dione, pharmaceutical composition, method for the production and use thereof” (VIRIOM, INC., priority 2019, dated 2024)

System: influenza A/Perth/265/2009 (H1N1pdm09) (H275Y)
Type: cell-based, influenza A virus

In the case of `O=C1c2c(O)c(=O)ccn2N([C@@H]2c3ccc(F)c(F)c3CSc3ccsc32)[C@@H]2COCCN12` [1.3.2, (12aR)-7-hydroxy-12-[(10R)-6,7-difluoro-5,10-dihydrothieno[3,2-c][2]benzothiepin-10-yl]-3,4,12,12a-tetrahydro-1H-[1,4]oxazino[3,4-c]pyrido[2,1-f][1,2,4]triazine-6,8-dione], the EC50 is reported as 800 pM.
